In patent US20110027771A1, “METHODS AND COMPOSITIONS FOR CELL STABILIZATION” (Artemis Health, Inc., priority 2009, published 2011):

Test system: fetal cells
Experiment: Fetal cell number in blood drawn into sodium heparin or EDTA tubes, digital PCR
Format: cell-based
Settings: composition containing heparin compared to composition containing EDTA; processed within 2 hrs after blood draw; FIG. 1
Protocol: The number of fetal cells in solutions containing EDTA or heparin were compared (FIG. 1). Pre-procedural blood samples (10 ml per condition) were drawn into either sodium heparin tubes or EDTA tubes. Samples were processed within 2 hrs after blood draw. Briefly, whole blood samples were centrifuged to separate blood cells and plasma. Fetal gender was determined by digital PCR using plasma. Blood cell pellets were washed 5 times in PBS to remove cell-free DNA. DNA was then extracted from washed blood cells with a Qiagen column. The fetal cell number in samples with a male fetus was enumerated by digital PCR.

heparin
fetal cell stability: higher stability
